Reference: patent US20240391931A1 (Bristol-Myers Squibb Company, priority 2021, published 2024)

Tests used:
[1] = target: HER2YVMA (Homo sapiens, UniProt P04626, INS775YVMA); test: Enzymatic assay HER2YVMA (method b); type: biochemical; parameters: purchased Viva biotech, Shanghai, China custom purification; conditions: [HER2YVMA]=5 nM, [ATP]=25 μM, [Peptide 22]=1 μM
How it was run: (§1)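 Initial rates over 0–3600 s, read as substrate-to-product conversion by capillary electrophoresis, were converted to percent inhibition and fitted with a variable-slope curve to give IC50. Conditions: EGFR WT 2 nM with 1 mM ATP; HER2 YVMA 5 nM or HER2 WT 12.5 nM, each with 25 μM ATP. All used 1 μM Peptide 22 in pH 7.5 HEPES/Mn/Mg buffer.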

[2] = target: T1, HER2 WT (Homo sapiens, UniProt P04626); test: Enzymatic assay HER2 WT (method a); type: biochemical; conditions: [HER2 WT]=12.5 nM, [ATP]=25 μM, [Peptide 22]=1 μM
T1 construct: purchased ProQinase, Freiburg, Germany ERBB2 0108-0000-1
T1 sequence (P04626 23-1255): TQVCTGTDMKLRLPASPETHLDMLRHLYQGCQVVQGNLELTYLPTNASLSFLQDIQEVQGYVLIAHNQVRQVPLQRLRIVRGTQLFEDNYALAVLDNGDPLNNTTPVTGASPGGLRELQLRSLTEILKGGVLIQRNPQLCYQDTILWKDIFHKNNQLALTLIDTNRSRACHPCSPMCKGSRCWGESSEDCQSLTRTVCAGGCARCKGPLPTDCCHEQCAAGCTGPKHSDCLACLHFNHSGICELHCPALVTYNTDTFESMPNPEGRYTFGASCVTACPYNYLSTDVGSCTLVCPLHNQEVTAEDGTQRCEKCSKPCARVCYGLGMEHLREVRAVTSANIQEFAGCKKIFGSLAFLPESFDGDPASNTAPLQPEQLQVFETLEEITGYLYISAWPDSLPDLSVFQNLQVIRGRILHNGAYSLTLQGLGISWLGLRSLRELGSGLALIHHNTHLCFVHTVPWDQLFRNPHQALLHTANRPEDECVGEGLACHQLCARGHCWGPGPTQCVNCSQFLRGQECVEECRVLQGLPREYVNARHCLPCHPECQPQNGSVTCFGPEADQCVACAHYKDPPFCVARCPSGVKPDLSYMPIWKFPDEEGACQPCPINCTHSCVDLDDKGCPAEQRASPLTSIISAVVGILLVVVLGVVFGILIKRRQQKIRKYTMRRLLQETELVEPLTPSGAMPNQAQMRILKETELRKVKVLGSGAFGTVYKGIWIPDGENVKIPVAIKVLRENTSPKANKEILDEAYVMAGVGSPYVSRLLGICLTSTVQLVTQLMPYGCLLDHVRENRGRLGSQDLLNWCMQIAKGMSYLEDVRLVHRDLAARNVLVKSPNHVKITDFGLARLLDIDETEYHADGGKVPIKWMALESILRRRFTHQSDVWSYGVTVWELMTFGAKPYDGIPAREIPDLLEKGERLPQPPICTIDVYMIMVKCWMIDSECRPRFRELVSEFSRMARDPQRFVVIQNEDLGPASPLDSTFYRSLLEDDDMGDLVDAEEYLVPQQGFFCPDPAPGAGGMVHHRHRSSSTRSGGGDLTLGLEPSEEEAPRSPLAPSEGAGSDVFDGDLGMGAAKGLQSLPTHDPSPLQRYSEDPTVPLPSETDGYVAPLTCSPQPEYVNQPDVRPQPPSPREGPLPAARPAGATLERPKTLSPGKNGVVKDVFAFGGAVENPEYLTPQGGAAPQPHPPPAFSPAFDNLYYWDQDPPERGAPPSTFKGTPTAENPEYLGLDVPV
How it was run: as §1

Chain of HER2YVMA (P04626 with tags, fused parts or gaps INS775YVMA): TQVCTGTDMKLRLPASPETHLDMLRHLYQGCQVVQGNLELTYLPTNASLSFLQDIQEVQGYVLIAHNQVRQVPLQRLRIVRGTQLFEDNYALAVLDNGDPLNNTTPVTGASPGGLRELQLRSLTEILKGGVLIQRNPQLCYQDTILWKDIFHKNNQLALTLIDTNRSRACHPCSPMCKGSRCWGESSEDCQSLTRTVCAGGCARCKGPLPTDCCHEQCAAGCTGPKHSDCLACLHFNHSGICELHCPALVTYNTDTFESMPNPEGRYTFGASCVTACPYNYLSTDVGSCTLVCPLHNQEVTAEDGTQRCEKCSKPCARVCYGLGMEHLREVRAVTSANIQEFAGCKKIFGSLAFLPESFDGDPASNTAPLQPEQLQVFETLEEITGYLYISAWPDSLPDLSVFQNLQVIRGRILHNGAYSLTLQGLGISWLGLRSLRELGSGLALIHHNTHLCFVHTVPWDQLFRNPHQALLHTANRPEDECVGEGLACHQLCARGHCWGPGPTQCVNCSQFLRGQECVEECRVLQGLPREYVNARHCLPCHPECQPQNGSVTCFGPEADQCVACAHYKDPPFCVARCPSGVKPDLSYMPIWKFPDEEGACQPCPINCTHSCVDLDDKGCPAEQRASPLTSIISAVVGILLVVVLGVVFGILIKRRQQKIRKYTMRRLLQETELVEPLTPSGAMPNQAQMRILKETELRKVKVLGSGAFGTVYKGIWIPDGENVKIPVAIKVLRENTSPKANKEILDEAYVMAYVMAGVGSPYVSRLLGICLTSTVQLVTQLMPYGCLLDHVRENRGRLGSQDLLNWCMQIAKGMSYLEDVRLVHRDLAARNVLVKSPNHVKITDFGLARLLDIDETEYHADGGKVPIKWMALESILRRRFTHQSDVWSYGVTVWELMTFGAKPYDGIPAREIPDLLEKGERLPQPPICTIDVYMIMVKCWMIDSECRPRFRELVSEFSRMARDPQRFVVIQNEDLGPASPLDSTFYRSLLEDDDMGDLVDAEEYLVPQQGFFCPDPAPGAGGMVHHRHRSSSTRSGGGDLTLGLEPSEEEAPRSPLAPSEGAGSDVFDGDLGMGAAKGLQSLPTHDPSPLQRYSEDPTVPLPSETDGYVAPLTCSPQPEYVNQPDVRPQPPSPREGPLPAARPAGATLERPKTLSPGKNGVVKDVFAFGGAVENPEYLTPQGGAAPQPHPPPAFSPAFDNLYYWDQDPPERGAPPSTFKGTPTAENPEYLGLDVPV

| IC50 [1] | IC50 [2] | SMILES |
| --- | --- | --- |
| < 100 nM | 100 to 1000 nM | Cc1ccc(Oc2ccc(Nc3ncnc4sc5c(c34)CN(C(=O)/C=C/CN(C)C)C5)cc2C)cn1 [Compound 99, (E)-4-(dimethylamino)-1-(4-((3-methyl-4-((6-methylpyridin-3-yl)oxy)phenyl)amino)-5,7-dihydro-6H-pyrrolo[3′,4′:4,5]thieno[2,3-d]pyrimidin-6-yl)but-2-en-1-one] |
| 100 to 1000 nM | 100 to 1000 nM | Cc1ccc(Oc2ccc(Nc3ncnc4sc5c(c34)CCN(C(=O)/C=C/CN(C)C)CC5)cc2C)cn1 [Compound 100, (E)-4-(dimethylamino)-1-(4-((3-methyl-4-((6-methylpyridin-3-yl)oxy)phenyl)amino)-8,9-dihydro-5H-pyrimido[5′,4′:4,5]thieno[2,3-d]azepin-7(6H)-yl)but-2-en-1-one] |
| < 100 nM | < 100 nM | Cc1ccc(Oc2ccc(Nc3ncnc4sc5c(c34)CCCN(C(=O)/C=C/CN(C)C)C5)cc2C)cn1 [Compound 101, (E)-4-(Dimethylamino)-1-(4-((3-methyl-4-((6-methylpyridin-3-yl)oxy)phenyl)amino)-6,7-dihydro-5H-pyrimido[5′,4′:4,5]thieno[2,3-c]azepin-8(9H)-yl)but-2-en-1-one] |
| < 100 nM | < 100 nM | C=CC(=O)N1CCc2[nH]c3ncnc(Nc4ccc(Oc5ccc6ncnn6c5)c(C)c4)c3c2C1 [Compound 102, 1-(4-((4-([1,2,4]triazolo[1,5-a]pyridin-6-yloxy)-3-methylphenyl)amino)-5,7,8,9-tetrahydro-6H-pyrido[3′,4′:4,5]pyrrolo[2,3-d]pyrimidin-6-yl)prop-2-en-1-one] |
| < 100 nM | 100 to 1000 nM | Cc1cc(Nc2ncnc3sc4c(c23)CN(C(=O)/C=C/CN(C)C)CC4)ccc1Oc1ccc2ncnn2c1 [Compound 103, (E)-1-(4-((4-([1,2,4]triazolo[1,5-a]pyridin-6-yloxy)-3-methylphenyl)amino)-7,8-dihydropyrido[3′,4′:4,5]thieno[2,3-d]pyrimidin-6(5H)-yl)-4-(dimethylamino)but-2-en-1-one] |
| < 100 nM | < 100 nM | Cc1cc(Nc2ncnc3sc4c(c23)CCN(C(=O)/C=C/CN(C)C)C4)ccc1Oc1ccc2nonc2c1 [Compound 104, (E)-1-(4-((4-(Benzo[c][1,2,5]oxadiazol-5-yloxy)-3-methylphenyl)amino)-5,6-dihydropyrido[4′,3′:4,5]thieno[2,3-d]pyrimidin-7(8H)-yl)-4-(dimethylamino)but-2-en-1-one] |
